According to patent US11059823B2, “Small molecule inhibitors of the JAK family of kinases” (Janssen Pharmaceutica NV, priority 2016, dated 2021):

Experiments:
[1] = Physical stability of crystalline embodiments of compound Ex. 1 (polymorph screening, HT-XRPD); assay type: physicochemical; conditions: for physical stability after exposure to AAC: accelerated aging conditions, 40° C./70% RH, two days
Protocol: Long term slurry experiments were performed by suspending compound embodiment 1s in twenty neat solvents and stirred at room temperature for two weeks and at 50° C. for one week. Upon completion of the equilibration time, the residual solids were separated from the mother liquors. The solids were dried under ambient conditions and dried under vacuum (5 mBar) before being analyzed by HT-XRPD. Subsequently, the solids were exposed to accelerated aging conditions (40° C./70% relative humidity) for two days and again analyzed by HT-XRPD.
Embodiment is converted to hydrated embodiment 10 when it was exposed to 100% RH at 25° C. […] This behavior is attributable to an unequally strong binding of all the hydration/solvation molecules. In this case, embodiment 10 would have a less strongly bound second water molecule that would be lost under ambient conditions. More precisely, the physical stability of embodiment is was investigated in climate chambers by exposing a 20 mg sample of such embodiment to 40° C. and 70% relative humidity for four days, and another 20 mg sample of the same embodiment was exposed also for four days to 25° C. and 100% relative humidity. After four days, the various solid samples were analyzed by HR-XRPD, the crystal cell parameters were determined and the diffractograms were indexed. From bottom to top, the first diffractogram in FIG. 6 corresponds to embodiment is as starting material, and the second corresponds to the same form after a 4-day exposure to 40° C. and 70% relative humidity, noted as “1s 70 RH” in the same figure. […] Indexing for such form was not possible due to the small amount in which it was present. The third diffractogram corresponds to embodiment is after a 4-day exposure to 25° C. and 100% relative humidity, noted as “10” in the same figure. […] Upon dehydration, both embodiments 1s and 10 re-crystallized to the anhydrous form with a melting point of 148° C.
The mother liquors of the solvent equilibration experiments performed at 50° C. were filtered at 50° C. to remove any particulate matter. […] When solids had precipitated during aging these solids were separated from the liquid, dried under ambient conditions and under vacuum, and analyzed by HT-XRPD. The remaining mother liquors were allowed to slowly evaporate and the remaining solids were analyzed by HT-XRPD. The samples in which no precipitation occurred were placed under vacuum and the dried solids were analyzed by HT-XRPD. All the solids were then exposed to AAC (2 days at 40° C./70% RH) and re-analyzed by HT-XRPD.
The cooling/evaporative crystallization experiments at L scale were performed in a 96-well plate, using 12 neat solvents and 12 solvent mixtures and applying four temperature profiles. […] Upon completion of the temperature profile the solvents were allowed to evaporate at low ambient pressure (24 hours) and the remaining solids were analyzed by HT-XRPD before and after exposure to AAC for 2 days (40° C./70% RH).
The cooling crystallization experiments with hot filtration were performed from supersaturated solutions of compound Ex. 1 prepared at 50° C. in different solvent mixtures. […] The vials in which solids had precipitated after the temperature profile were centrifuged and the solids were separated from the liquid and analyzed by HT-XRPD (after drying under vacuum). If no solids had precipitated the solutions were evaporated under vacuum and the solids analyzed by HT-XRPD. […]

[2] = tested on: MDCK-MDR1 cell line; assay: MDCK-MDR1 permeability assay; assay type: in vitro ADME; conditions: apical-to-basolateral, with P-gp inhibitor elacridar (2 μM), 5 μM, 60 min
Protocol: Permeability measurements were conducted according to the Cyprotex protocol using the MDCK-MDR1 cell line obtained from the NIH (Rockville, Md., USA). […] The cells in this assay form a cohesive sheet of a single cell layer filing the surface area of the culture dish, also known as a confluent monolayer, and on day four the test compound was added to the apical side of the membrane and the transport of the compound across the monolayer was monitored over a time period of 60 min.
Test compounds were dissolved in DMSO at a concentration of 10 mM. The dosing solutions were prepared by diluting test compound with assay buffer (Hanks Balanced Salt Solution), pH 7.4, at a final concentration of 5 μM. For assessment of apical to basolateral (“A-B”) permeability, buffer was removed from the apical compartment and replaced with test compound dosing solution with or without the permeability glycoprotein (“PgP”, “P-gP”, “Pgp” or “P-gp”) inhibitor elacridar (2 μM). For assessment of basolateral to apical (“B-A”) permeability, buffer was removed from the companion plate and replaced with test compound dosing solution. Incubations were carried out in duplicate at 37° C. in an atmosphere of 5% CO2 with a relative humidity of 95%. Each assay included the reference markers propranolol (high permeability) and prazosin (PgP substrate). After incubation for 60 minutes, apical and basolateral samples were diluted and test compounds quantified by LC/MS/MS using an 8-point calibration in the range 0.0039 to 3 μM with appropriate dilution of the samples (receiver dilution factor=1; donor and Co dilution factor=10). The permeability coefficient (Papp) for each compound was calculated from the following equation: Papp=(dQ/dt)/(C0×S), where dQ/dt is the rate of permeation of the drug across the cells, C0 is the donor compartment concentration at time zero, and S is the area of the cell monolayer.
Papp(A-B) gives an indication of permeation extent across the cells in this assay, which is envisaged to model the transcellular transport across Pgp-expressing cells, such as Pgp-expressing gastrointestinal tract cells.

[3] = tested on: moderate to severe CD; conditions: 4 week/Phase 2 clinical trial; cited from earlier work

Structure (SMILES) | physical stability after exposure to AAC [1] | further results
CC(C)(O)CNC(=O)Cc1nc2cnc3[nH]ccc3c2n1[C@H]1CC[C@H](CC#N)CC1 [Embodiment 2] | converted to embodiment 3e | 
CC(C)(O)CNC(=O)Cc1nc2cnc3[nH]ccc3c2n1[C@H]1CC[C@H](CC#N)CC1 [Embodiment 5] | physically unstable | 
CC(C)(O)CNC(=O)Cc1nc2cnc3[nH]ccc3c2n1[C@H]1CC[C@H](CC#N)CC1 [Embodiment 6] | stable solid form | 
CC(C)(O)CNC(=O)Cc1nc2cnc3[nH]ccc3c2n1[C@H]1CC[C@H](CC#N)CC1 [Embodiment 7] | physically stable | 
CC(C)(O)CNC(=O)Cc1nc2cnc3[nH]ccc3c2n1[C@H]1CC[C@H](CC#N)CC1 [Embodiment 10] |  | physical stability under ambient conditions ([1]; ambient conditions): limited physical stability
N#CC[C@H]1CC[C@H](n2c(CC(=O)NC3CCOCC3)nc3cnc4[nH]ccc4c32)CC1 [Ex. 5, 2-(1-((1r,4r)-4-(Cyanomethyl)cyclohexyl)-1,6-dihydroimidazo[4,5-d]pyrrolo[2,3-b]pyridin-2-yl)-N-(tetrahydro-2H-pyran-4-yl)acetamide] |  | MDCK-MDR1 P^eapp(A-B) @ 5 (μM) [2]: 0.5 10^−6 cm/sec
C[C@@H]1CCN(C(=O)CC#N)C[C@@H]1N(C)c1ncnc2[nH]ccc12 [tofacitinib] |  | clinical efficacy in Crohn's disease [3]: failure to achieve clinical efficacy
